# Reference: PubChem BioAssay (NCI)
# Several values for one entry are separate records, joined by “and”; a condition that tells them apart may be missing. Equal entries are not always repeated.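 Five compound concentrations were applied to cells in 96-well plates for 48 hours; endpoints were derived by simple linear interpolation of the resulting dose-response curve. Abbreviation: GI50, concentration required for 50% inhibition of growth. At the TGI there is no net growth.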
# Assays:
# Experiment in all cases: growth of human tumour cells (NCI), 48 h
# SK-MEL-5 melanoma = test system: SK-MEL-5 melanoma
# SK-MEL-28 melanoma = test system: SK-MEL-28 melanoma
# MALME-3M melanoma = test system: MALME-3M melanoma
# 786-0 renal = test system: 786-0 renal
# SN12C renal = test system: SN12C renal
# HCT-116 colon = test system: HCT-116 colon
# SK-MEL-2 melanoma = test system: SK-MEL-2 melanoma
# NCI-H226 lung = test system: NCI-H226 lung
# HCT-15 colon = test system: HCT-15 colon
# NCI-H522 lung = test system: NCI-H522 lung
SMILES,GI50 (SK-MEL-5 melanoma),TGI (SK-MEL-5 melanoma),GI50 (SK-MEL-28 melanoma),TGI (SK-MEL-28 melanoma),GI50 (MALME-3M melanoma),TGI (MALME-3M melanoma),GI50 (786-0 renal),TGI (786-0 renal),GI50 (SN12C renal),TGI (SN12C renal),GI50 (HCT-116 colon),TGI (HCT-116 colon),GI50 (SK-MEL-2 melanoma),TGI (SK-MEL-2 melanoma),GI50 (NCI-H226 lung),TGI (NCI-H226 lung),GI50 (HCT-15 colon),TGI (HCT-15 colon),GI50 (NCI-H522 lung),TGI (NCI-H522 lung)
C/C(=N\NC(=S)N1CCN(C2CCCCCC2)CC1)c1ccccn1,20.4 nM,8380 nM and 1010 nM,4080 nM,2250 nM,38.2 nM,3090 nM,12.1 nM,3580 nM and 1950 nM,2020 nM,2960 nM,< 1 nM,1650 nM,2020 nM,9660 nM and 3160 nM,2880 nM,2700 nM,< 1 nM,3550 nM and 2100 nM,< 1 nM,120 nM and 267 nM
CNc1cc2nc3cc(NC)c(C)cc3cc2cc1C,2050 nM,14000 nM,5910 nM,20500 nM,2700 nM,19800 nM,683 nM,2050 nM,573 nM,10500 nM,365 nM,1490 nM,6000 nM,26200 nM,810 nM,18800 nM,3700 nM,91100 nM,552 nM,5060 nM
CC1=C(C(=O)Nc2ccc3[nH]ncc3c2)C(c2ccc(Cl)c(Cl)c2)CC(=O)N1 (stereo not drawn),> 25000 nM,> 25000 nM,> 25000 nM,> 25000 nM,10600 nM,> 25000 nM,> 25000 nM,> 25000 nM,> 25000 nM,> 25000 nM,19400 nM,> 25000 nM,> 25000 nM,> 25000 nM,6090 nM,> 25000 nM,> 25000 nM,> 25000 nM,19500 nM,> 25000 nM
C=C1COC(O)(C2OCOC(C3CC(=O)NC(=O)C3)C2O)C1C (stereo not drawn),1.66 nM,4.59 nM and 3.85 nM,2.22 nM,37.7 nM,2.85 nM,15.4 nM and 36.4 nM,3.62 nM,53.2 nM,,12 nM,2.88 nM,33.7 nM and 33.5 nM,2.43 nM,9.27 nM and 44.6 nM,3.56 nM,19 nM and 21.6 nM,3.63 nM and 12.7 nM,,2.01 nM,6.84 nM and 5.93 nM and 13.7 nM
c1ccc(CN2CCC3(CC2)SSC2(CCN(Cc4ccccc4)CC2)SS3)cc1,,> 100000 nM,,> 100000 nM,,> 100000 nM,,> 100000 nM,,> 100000 nM,,> 100000 nM,,> 100000 nM,,> 100000 nM,,> 100000 nM,,> 100000 nM
C=C1CCC2C3(C)COC(c4c(OC)cccc4OC)OC3CCC2(C)C1C/C=C1/C(=O)OCC1O (stereo not drawn),2830 nM,8570 nM,1930 nM,4050 nM,8920 nM,27700 nM,3340 nM,8880 nM,2330 nM,8270 nM,1640 nM,3110 nM,7180 nM,21900 nM,2420 nM,5810 nM,2280 nM,7870 nM,2020 nM,5010 nM
CCCC[n+]1c(/C=C\c2c(OC)cc(OC)cc2OC)ccc2ccccc21,299 nM,1290 nM,601 nM,2750 nM,362 nM,2070 nM,2840 nM,13000 nM,728 nM,5770 nM,413 nM,3480 nM,1080 nM,2740 nM,1920 nM,12600 nM,2840 nM,12300 nM,678 nM,3070 nM
O=c1c2cccc(F)c2sc2c(N3CCNCC3)nc3ccccc3c12,1690 nM,3080 nM,1880 nM,3350 nM,1670 nM,3070 nM,1740 nM,3280 nM,1320 nM,2720 nM,931 nM,2160 nM,1760 nM,3460 nM,1650 nM,3400 nM,1290 nM,2710 nM,1450 nM,3180 nM
Cc1cccc2nc3cccc(C(=O)NCCNCCNCCNC(=O)c4cccc5nc6cccc(C)c6nc45)c3nc12,< 13.1 nM,851 nM,101 nM,4370 nM,< 30.2 nM,2210 nM,< 33.3 nM,7740 nM,48.9 nM,14100 nM,< 10 nM,> 35800 nM,< 10 nM,186 nM,< 12.8 nM,274 nM,26.8 nM,> 100000 nM,< 10 nM,159 nM
Cc1cc(Cl)ccc1NC(=O)CCCC(=O)C1CCC/C1=N\NC(=O)CC#N (stereo not drawn),,> 100000 nM,,> 100000 nM,,> 100000 nM,,> 100000 nM,,> 100000 nM,,> 100000 nM,,> 100000 nM,,> 100000 nM,,> 100000 nM,,> 100000 nM
O=C(N=Nc1c(O)[nH]c2ccccc12)c1oc2ccccc2c1CN1CCN(c2ccccc2)CC1,1490 nM,5190 nM,1540 nM,6340 nM,724 nM,1700 nM,865 nM,1840 nM,1300 nM,3900 nM,1550 nM,5340 nM,5460 nM,15800 nM,6680 nM,20500 nM,1640 nM,10200 nM,3580 nM,19300 nM
C[N+](C)(CCCCCC[N+](C)(C)CCCN1C(=O)c2cc3ccccc3cc2C1=O)CCCN1C(=O)c2cc3ccccc3cc2C1=O,> 37500 nM,> 37500 nM,> 37500 nM,> 37500 nM,> 37500 nM,> 37500 nM,> 37500 nM,> 37500 nM,> 37500 nM,> 37500 nM,> 37500 nM,> 37500 nM,> 37500 nM,> 37500 nM,> 37500 nM,> 37500 nM,> 37500 nM,> 37500 nM,> 37500 nM,> 37500 nM
